BindingDB's records for doi:10.1021/jm980131z (Boehringer Ingelheim (Canada), 1998)

Each compound was assayed against Human cytomegalovirus protease (Human herpesvirus 5) (assay: Inhibitory activity against human cytomegalovirus (HCMV) protease).

IC50 [µM]	Structure (SMILES)
17	CC(=O)Nc1ccc(CN(C)C(=O)N2C(=O)C[C@@H]2Cc2ccccc2)cc1 [(S)-2-Benzyl-4-oxo-azetidine-1-carboxylic acid (4-acetylamino-benzyl)-methyl-amide]
3.4	CCC[C@@H](NC(=O)N1C(=O)C[C@@H]1Cc1ccccc1)c1ccccc1 [(S)-2-Benzyl-4-oxo-azetidine-1-carboxylic acid ((R)-1-phenyl-butyl)-amide]
3.9	COc1ccc(NC(=O)N2C(=O)C[C@@H]2Cc2ccccc2)cc1 [(S)-2-Benzyl-4-oxo-azetidine-1-carboxylic acid (4-methoxy-phenyl)-amide]
5.2	Cc1ccc(NC(=O)N2C(=O)C[C@@H]2Cc2ccccc2)cc1 [(S)-2-Benzyl-4-oxo-azetidine-1-carboxylic acid p-tolylamide]
6.2	CON(Cc1ccccc1)C(=O)N1C(=O)C[C@@H]1Cc1ccccc1 [(S)-2-Benzyl-4-oxo-azetidine-1-carboxylic acid benzyl-methoxy-amide]
2.6	CC[C@@H](NC(=O)N1C(=O)C[C@@H]1Cc1ccccc1)c1ccccc1 [(S)-2-Benzyl-4-oxo-azetidine-1-carboxylic acid ((R)-1-phenyl-propyl)-amide]
12	O=C1C[C@H](Cc2ccccc2)N1C(=O)NCc1ccncc1 [(S)-2-Benzyl-4-oxo-azetidine-1-carboxylic acid (pyridin-4-ylmethyl)-amide]
> 75	CC1(C)C(=O)N(C(=O)NCc2ccncc2)[C@H]1Cc1ccccc1 [(S)-2-Benzyl-3,3-dimethyl-4-oxo-azetidine-1-carboxylic acid (pyridin-4-ylmethyl)-amide]
1.5	CN(Cc1ccc([N+](=O)[O-])cc1)C(=O)N1C(=O)C[C@@H]1Cc1ccccc1 [(S)-2-Benzyl-4-oxo-azetidine-1-carboxylic acid methyl-(4-nitro-benzyl)-amide]
4.3	CN(Cc1ccc(S(=O)(=O)C(F)(F)F)cc1)C(=O)N1C(=O)C[C@@H]1Cc1ccccc1 [(S)-2-Benzyl-4-oxo-azetidine-1-carboxylic acid methyl-(4-trifluoromethanesulfonyl-benzyl)-amide]
42	C[C@H](NC(=O)N1C(=O)C[C@@H]1Cc1ccccc1)c1ccccc1 [(S)-2-Benzyl-4-oxo-azetidine-1-carboxylic acid ((S)-1-phenyl-ethyl)-amide]
10	O=C1C[C@H](Cc2ccccc2)N1C(=O)NCc1cccnc1 [(S)-2-Benzyl-4-oxo-azetidine-1-carboxylic acid (pyridin-3-ylmethyl)-amide]
6	CN(Cc1ccc(C#N)cc1)C(=O)N1C(=O)C[C@@H]1Cc1ccccc1 [(S)-2-Benzyl-4-oxo-azetidine-1-carboxylic acid (4-cyano-benzyl)-methyl-amide]
8.4	O=C1C[C@H](Cc2ccccc2)N1C(=O)NC1CCCCC1 [(S)-2-Benzyl-4-oxo-azetidine-1-carboxylic acid cyclohexylamide]
11	CN(Cc1ccccc1[N+](=O)[O-])C(=O)N1C(=O)C[C@@H]1Cc1ccccc1 [(S)-2-Benzyl-4-oxo-azetidine-1-carboxylic acid methyl-(2-nitro-benzyl)-amide]
6.9	CN(Cc1ccc(Cl)cc1)C(=O)N1C(=O)C[C@@H]1Cc1ccccc1 [(S)-2-Benzyl-4-oxo-azetidine-1-carboxylic acid (4-chloro-benzyl)-methyl-amide]
20	CN(Cc1ccc(N)cc1)C(=O)N1C(=O)C[C@@H]1Cc1ccccc1 [(S)-2-Benzyl-4-oxo-azetidine-1-carboxylic acid (4-amino-benzyl)-methyl-amide]
13	O=C1C[C@H](Cc2ccccc2)N1C(=O)N(Cc1ccccc1)OCc1ccccc1 [(S)-2-Benzyl-4-oxo-azetidine-1-carboxylic acid benzyl-benzyloxy-amide]
8.9	Cc1ccc(CN(C)C(=O)N2C(=O)C[C@@H]2Cc2ccccc2)cc1 [(S)-2-Benzyl-4-oxo-azetidine-1-carboxylic acid methyl-(4-methyl-benzyl)-amide]
6.9	CS[C@@H]1C(=O)N(C(=O)NCc2ccncc2)[C@H]1Cc1ccccc1 [(2S,3S)-2-Benzyl-3-methylsulfanyl-4-oxo-azetidine-1-carboxylic acid (pyridin-4-ylmethyl)-amide]
> 300	CC1(C)C(=O)N(C(=O)NCc2ccncc2)[C@@H]1Cc1ccccc1
10	O=C1C[C@H](Cc2ccccc2)N1C(=O)NCc1ccccc1 [(S)-2-Benzyl-4-oxo-azetidine-1-carboxylic acid benzylamide]
> 75	O=C1C[C@H](Cc2ccccc2)N1C(=O)N(Cc1ccccc1)C1CC1 [(S)-2-Benzyl-4-oxo-azetidine-1-carboxylic acid benzyl-cyclopropyl-amide]
6.4	CC(C)c1ccc(CN(C)C(=O)N2C(=O)C[C@@H]2Cc2ccccc2)cc1 [(S)-2-Benzyl-4-oxo-azetidine-1-carboxylic acid (4-isopropyl-benzyl)-methyl-amide]
6.9	CN(Cc1ccc(SC(F)(F)F)cc1)C(=O)N1C(=O)C[C@@H]1Cc1ccccc1 [(S)-2-Benzyl-4-oxo-azetidine-1-carboxylic acid methyl-(4-trifluoromethylsulfanyl-benzyl)-amide]
3.7	O=C1C[C@H](Cc2ccccc2)N1C(=O)Nc1ccc(F)cc1 [(S)-2-Benzyl-4-oxo-azetidine-1-carboxylic acid (4-fluoro-phenyl)-amide]
> 75	C[C@@H](NC(=O)N1C(=O)C[C@H]1Cc1ccccc1)c1ccccc1 [(R)-2-Benzyl-4-oxo-azetidine-1-carboxylic acid ((R)-1-phenyl-ethyl)-amide]
33	O=C1C[C@H](Cc2ccccc2)N1C(=O)NCc1ccccn1 [(S)-2-Benzyl-4-oxo-azetidine-1-carboxylic acid (pyridin-2-ylmethyl)-amide]
4	C[C@@H](NC(=O)N1C(=O)C[C@@H]1Cc1ccccc1)c1ccccc1 [(S)-2-Benzyl-4-oxo-azetidine-1-carboxylic acid ((R)-1-phenyl-ethyl)-amide]
6.9	CN(Cc1cccc([N+](=O)[O-])c1)C(=O)N1C(=O)C[C@@H]1Cc1ccccc1 [(S)-2-Benzyl-4-oxo-azetidine-1-carboxylic acid methyl-(3-nitro-benzyl)-amide]
